Measurements as given in patent publication US4575497A, “3, 3", 4"-Tri-O-acylspiramycin I” (Kyowa Hakko Kogyo Co., Ltd, priority 1983, dated 1986).

Tests used:
[1] = background literature, in words; cited from earlier work
[2] = system: Streptococcus pneumoniae Type III; experiment: Healing effect on test infection in mice, ED50 (Reference Example 1); assay type: in vivo; settings: oral, 0.3% CMC, just after i.p. inoculation; Probit method, survived animals on the 7th day
Text: Comparison of healing effects of acetylspiramycin and 3, 3", 4"-tri-O-acetylspiramycin I on test infection in mice
Animal : ddY-strain male mice, 19±lg, one group consisting of ten mice.
Test bacterium : Streptococcus pneumoniae Type III. Inoculation rate : 1.1×10^2 cfu/mouse.
The predetermined amount of the precultured test bacteria was inoculated via i.p..
Medicament administration : Each of the medicaments was suspended in 0.3% CMC, and orally administered just after the inoculation of bacteria.

[3] = system: Micrococcus ruteus KB212; experiment: MIC against Micrococcus ruteus KB212 (E); assay type: cell-based; settings: Heart infusion agar (pH 7.0)
Text: (§1) The minimum inhibitory concentration (MIC) of Compound (I) is shown in Table 4 in comparison with that of spiramycin I.
(§2) Minimum inhibitory concentration (MIC, μ g/ml)
(§3) Remark: medium used: Heart infusion agar (pH 7.0)
E: Micrococcus ruteus KB212

[4] = system: Escherichia coli KB213; experiment: MIC against Escherichia coli KB213 (F); assay type: cell-based; settings: Heart infusion agar (pH 7.0)
Text: as §1, §2, §3
F: Escherichia coli KB213

[5] = system: Streptococcus pneumoniae Type III; experiment: Infection-healing effect, mice protection test (Test Example); assay type: in vivo; settings: for Number of survived mice out of 10 mice: 60 mg/kg in 0.3% CMC, orally just after i.p. inoculation (1.1×10^2 cfu/mouse), 7th day; for therapeutic effect in an infection-healing test in mice: Streptococcus pneumoniae Type III, compared with acetylspiramycin and 3, 3", 4"-tri-O-acetylspiramycin I
Experimental: A test example of the therapeutic effect of Compound (I) in experimental test mice protection test will be given below:
Animal: ddY-strain male mice, 19±lg, one group consisting of ten mice.
Test bacterium: Streptococcus pneumoniae Type III, Inoculation rate: 1.1×10^2 cfu/mouse.
The predetermined amount of the precultured test bacteria was inoculated via i.p.
Medicament administration: 60 mg/kg of each of the medicaments was suspended in 0.3% CMC, and orally administered just after the inoculation of bacteria.

[6] = system: Bacillus subtilis KB211; experiment: MIC against Bacillus subtilis KB211 (C); assay type: cell-based; settings: Heart infusion agar (pH 7.0)
Text: as §1, §2, §3
C: Bacillus subtilis KB211

[7] = system: Staphylococcus aureus KB210; experiment: MIC against Staphylococcus aureus KB210 (A); assay type: cell-based; settings: Heart infusion agar (pH 7.0)
Text: as §1, §2, §3
A: Staphylococcus aureus KB210

[8] = system: Klebsiella pneumoniae KB214; experiment: MIC against Klebsiella pneumoniae KB214 (G); assay type: cell-based; settings: Heart infusion agar (pH 7.0)
Text: as §1, §2, §3
G: Klebsiella pneumoniae KB214

[9] = system: Bacillus cereus KB143; experiment: MIC against Bacillus cereus KB143 (D); assay type: cell-based; settings: Heart infusion agar (pH 7.0)
Text: as §1, §2, §3
D: Bacillus cereus KB143

[10] = system: Staphylococcus aureus KB199; experiment: MIC against Staphylococcus aureus KB199 (B); assay type: cell-based; settings: Heart infusion agar (pH 7.0)
Text: as §1, §2, §3
B: Staphylococcus aureus KB199

| Compound | in vivo activity compared with starting compounds [1] | ED50 [2] [mg/kg] | Minimum inhibitory concentration (MIC) [3] [μ g/ml] | Minimum inhibitory concentration (MIC) [4] [μ g/ml] | Number of survived mice out of 10 mice [5] | Minimum inhibitory concentration (MIC) [6] [μ g/ml] | Minimum inhibitory concentration (MIC) [7] [μ g/ml] | Minimum inhibitory concentration (MIC) [8] [μ g/ml] | Minimum inhibitory concentration (MIC) [9] [μ g/ml] | Minimum inhibitory concentration (MIC) [10] [μ g/ml] | therapeutic effect in an infection-healing test in mice [5] |
| --- | --- | --- | --- | --- | --- | --- | --- | --- | --- | --- | --- |
| 3", 9-di-O-acetyl compound of midecamycin | better in vivo activity |  |  |  |  |  |  |  |  |  |  |
| CCCC(=O)O[C@H]1[C@H](C)O[C@@H](O[C@H]2[C@H](N(C)C)[C@@H](O)[C@H](O[C@H]3[C@@H](CC=O)C[C@@H](C)[C@@H](O)/C=C/C=C/C[C@@H](C)OC(=O)C[C@@H](O)[C@@H]3OC)O[C@@H]2C)C[C@@]1(C)OC(=O)CC [3"-O-propionyl compound of leucomycin A5] | better in vivo activity |  |  |  |  |  |  |  |  |  |  |
| COC1C(OC(C)=O)CC(=O)OC(C)CC=CC=CC(OC2CCC(N(C)C)C(C)O2)C(C)CC(CC=O)C1OC1OC(C)C(OC2CC(C)(OC(C)=O)C(OC(C)=O)C(C)O2)C(N(C)C)C1O (stereo not drawn) [3, 3", 4"-tri-O-acetylspiramycin, 3, 3", 4"-tri-O-acetylspiramycin I] |  | 69.5 |  |  |  |  |  |  |  |  |  |
| CCC(=O)OC1C(C)OC(OC2C(C)OC(OC3C(CC=O)CC(C)C(OC4CCC(N(C)C)C(C)O4)C=CC=CCC(C)OC(=O)CC(OC(C)=O)C3OC)C(O)C2N(C)C)CC1(C)OC(C)=O (stereo not drawn) [Compound 1, 3, 3"-di-O-acetyl-4"-O-propionylspiramycin I] |  |  | < 0.1 | > 100 | 5 mice out of 10 mice | 1.56 | 3.12 | > 100 | 3.12 | > 100 |  |
| CCCC(=O)OC1C(C)OC(OC2C(C)OC(OC3C(CC=O)CC(C)C(OC4CCC(N(C)C)C(C)O4)C=CC=CCC(C)OC(=O)CC(OC(C)=O)C3OC)C(O)C2N(C)C)CC1(C)OC(C)=O (stereo not drawn) [Compound 2, 3, 3"-di-O-acetyl-4"-O-butyrylspiramycin I] |  |  | < 0.1 | > 100 | 5 mice out of 10 mice | 1.56 | 1.56 | 100 | 1.56 | > 100 |  |
| CCC(=O)OC1CC(=O)OC(C)CC=CC=CC(OC2CCC(N(C)C)C(C)O2)C(C)CC(CC=O)C(OC2OC(C)C(OC3CC(C)(OC(=O)CC)C(OC(C)=O)C(C)O3)C(N(C)C)C2O)C1OC (stereo not drawn) [Compound 3, 3,3"-di-O-propionyl-4"-O-acetylspiramycin I] |  |  | < 0.1 | > 100 | 5 mice out of 10 mice | 3.12 | 3.12 | > 100 | 3.12 | > 100 |  |
| CCC(=O)OC1CC(=O)OC(C)CC=CC=CC(OC2CCC(N(C)C)C(C)O2)C(C)CC(CC=O)C(OC2OC(C)C(OC3CC(C)(OC(=O)CC)C(OC(=O)CC)C(C)O3)C(N(C)C)C2O)C1OC (stereo not drawn) [Compound 4, 3, 3", 4"-tri-O-propionylspiramycin I] |  |  | < 0.1 | > 100 | 10 mice out of 10 mice | 1.56 | 1.56 | > 100 | 1.56 | > 100 | more excellent therapeutic effect than acetylspiramycin and 3, 3", 4"-tri-O-acetylspiramycin I |
| CCC(=O)OC1(C)CC(OC2C(C)OC(OC3C(CC=O)CC(C)C(OC4CCC(N(C)C)C(C)O4)C=CC=CCC(C)OC(=O)CC(OC(C)=O)C3OC)C(O)C2N(C)C)OC(C)C1OC(C)=O (stereo not drawn) [Compound 5, 3, 4"-di-O-acetyl-3"-O-propionylspiramycin I] |  |  | < 0.1 | > 100 | 3 mice out of 10 mice | 3.12 | 3.12 | > 100 | 1.56 | > 100 |  |
| CCCC(=O)OC1(C)CC(OC2C(C)OC(OC3C(CC=O)CC(C)C(OC4CCC(N(C)C)C(C)O4)C=CC=CCC(C)OC(=O)CC(OC(C)=O)C3OC)C(O)C2N(C)C)OC(C)C1OC(C)=O (stereo not drawn) [Compound 6, 3, 4"-di-O-acetyl-3"-O-butyrylspiramycin I] |  |  | 0.2 | > 100 | 10 mice out of 10 mice | 3.12 | 6.25 | > 100 | 1.56 | > 100 | more excellent therapeutic effect than acetylspiramycin and 3, 3", 4"-tri-O-acetylspiramycin I |
| CCCC(=O)OC1(C)CC(OC2C(C)OC(OC3C(CC=O)CC(C)C(OC4CCC(N(C)C)C(C)O4)C=CC=CCC(C)OC(=O)CC(OC(=O)CC)C3OC)C(O)C2N(C)C)OC(C)C1OC(=O)CC (stereo not drawn) [Compound 7, 3, 4"-di-O-propionyl-3"-O-butyrylspiramycin I] |  |  | < 0.1 | > 100 | 5 mice out of 10 mice | 1.56 | 3.12 | > 100 | 1.56 | > 100 |  |
| CCC(=O)OC1CC(=O)OC(C)CC=CC=CC(OC2CCC(N(C)C)C(C)O2)C(C)CC(CC=O)C(OC2OC(C)C(OC3CC(C)(OC(C)=O)C(OC(=O)CC)C(C)O3)C(N(C)C)C2O)C1OC (stereo not drawn) [Compound 8, 3"-O-acetyl-3, 4"-di-O-propionylspiramycin I] |  |  | 0.2 | > 100 | 10 mice out of 10 mice | 3.12 | 3.12 | > 100 | 3.12 | > 100 | more excellent therapeutic effect than acetylspiramycin and 3, 3", 4"-tri-O-acetylspiramycin I |
| CCCC(=O)OC1C(C)OC(OC2C(C)OC(OC3C(CC=O)CC(C)C(OC4CCC(N(C)C)C(C)O4)C=CC=CCC(C)OC(=O)CC(OC(=O)CC)C3OC)C(O)C2N(C)C)CC1(C)OC(=O)CC (stereo not drawn) [Compound 9, 3, 3"-di-O-propionyl-4"-O-butyrylspiramycin I] |  |  | 0.2 | > 100 | 8 mice out of 10 mice | 3.12 | 3.12 | > 100 | 3.12 | > 100 | more excellent therapeutic effect than acetylspiramycin and 3, 3", 4"-tri-O-acetylspiramycin I |
| CO[C@@H]1[C@@H](O[C@@H]2O[C@H](C)[C@@H](O[C@H]3C[C@@](C)(O)[C@@H](O)[C@H](C)O3)[C@H](N(C)C)[C@H]2O)[C@@H](CC=O)C[C@@H](C)[C@@H](O[C@H]2CC[C@H](N(C)C)[C@@H](C)O2)/C=C/C=C/C[C@@H](C)OC(=O)C[C@H]1O [SPMI, Spiramycin I] |  |  | < 0.1 | 100 | 0 mice out of 10 mice | 0.78 | 1.56 | 100 | 1.56 | > 100 |  |
